Patent US20260232767A1, “INTERLEUKIN-23 RECEPTOR ANTAGONIST PEPTIDES FOR USE IN THE TREATMENT OF PSORIASIS” (Janssen Pharmaceutica NV, priority 2023, published 2026)

System: subjects with moderate-to-severe plaque psoriasis
Test: Safety, adverse events, Example 2 through Week 56
Type: in vivo, human
Text: The LTE safety analysis was based on randomized participants in Example who entered the present long-term extension study and received at least one dose of study intervention (including a partial dose) during the study period.

[1] = 25 mg BID, Week 16 through Week 56
[2] = 25 mg BID, LTE Safety analysis set

CC(=O)NCCCC[C@@H]1NC(=O)[C@H](Cc2c[nH]c3c(C)cccc23)NC(=O)[C@H]([C@@H](C)O)NC(=O)[C@H](CC(N)=O)NC(=O)[C@@H](NC(C)=O)C(C)(C)SSC(C)(C)[C@@H](C(=O)N[C@@H](Cc2ccc(OCCN)cc2)C(=O)N[C@@H](Cc2ccc3ccccc3c2)C(=O)NC2(C(=O)N[C@@H](CCC(=O)O)C(=O)N[C@@H](CC(N)=O)C(=O)N[C@@H](Cc3cccnc3)C(=O)N(C)CC(N)=O)CCOCC2)NC1=O [IL-23 receptor antagonist peptide, Ac-[Pen]*-N-T-[W(7-Me)]-[Lys(Ac)]-[Pen]*-Phe[4-(2-aminoethoxy)]-[2-Nal]-[THP]-E-N-[3-Pal]-Sarc-NH2 (*[Pen]-[Pen]* formdisulfidebond)]
Subjects with Bronchitis bacterial: 0
Number of subjects with treatment-emergent AE: Cholelithiasis [1]: 0
Number of subjects with treatment-emergent AE: Ear and labyrinth disorders [1]: 0
Number of subjects with treatment-emergent AE: Endocrine disorders [1]: 1
Number of subjects with treatment-emergent AE: Eye disorders [1]: 1
Number of subjects with treatment-emergent AE: Eyelid skin dryness [1]: 1
Number of subjects with treatment-emergent AE: Goiter [1]: 1
Number of subjects with treatment-emergent AE: Hepatobiliary disorders [1]: 0
Number of subjects with treatment-emergent AE: Hypertransaminasemia [1]: 0
Number of subjects with treatment-emergent AE: Immune system disorders [1]: 0
Number of subjects with treatment-emergent AE: Insomnia [1]: 1
Number of subjects with treatment-emergent AE: Ocular cyst [1]: 0
Number of subjects with treatment-emergent AE: Psychiatric disorders [1]: 1
Number of subjects with treatment-emergent AE: Retinal vein occlusion [1]: 0
Number of subjects with treatment-emergent AE: Seasonal allergy [1]: 0
Number of subjects with treatment-emergent AE: Vertigo [1]: 0
Subjects with treatment-emergent AE: Endocrine disorders (%) [1]: (2.5%)
Subjects with treatment-emergent AE: Eye disorders (%) [1]: (2.5%)
Subjects with treatment-emergent AE: Eyelid skin dryness (%) [1]: (2.5%)
Subjects with treatment-emergent AE: Goiter (%) [1]: (2.5%)
Subjects with treatment-emergent AE: Insomnia (%) [1]: (2.5%)
Subjects with treatment-emergent AE: Psychiatric disorders (%) [1]: (2.5%)
Subjects with treatment-emergent AE: Ventricular dysfunction (%) [1]: (2.5%)
Subjects with 1 or more Serious Infections and infestations [2]: 0
Subjects with adverse event: Alanine aminotransferase increased [2]: 0
Subjects with adverse event: Arthralgia [2]: 0
Subjects with adverse event: Aspartate aminotransferase increased [2]: 0
Subjects with adverse event: Vomiting [2]: 0
Subjects with serious adverse event: Cerebrovascular accident [2]: 0
Subjects with serious adverse event: Coronary artery disease [2]: 0
Subjects with serious adverse event: Diverticulitis [2]: 0
Subjects with serious adverse event: Foot deformity [2]: 0
Subjects with serious adverse event: Intervertebral disc protrusion [2]: 0
Subjects with serious adverse event: Non-cardiac chest pain [2]: 0
Subjects with serious adverse event: Uterine leiomyoma [2]: 0
Subjects with AE leading to discontinuation: Alanine aminotransferase increased (25 mg BID, Week 16-56): 0
Subjects with AE leading to discontinuation: Aspartate aminotransferase increased (25 mg BID, Week 16-56): 0
Subjects with AE leading to discontinuation: Ear and labyrinth disorders (25 mg BID, Week 16-56): 0
Subjects with AE leading to discontinuation: Gamma-glutamyltransferase increased (25 mg BID, Week 16-56): 0
Subjects with AE leading to discontinuation: Investigations (25 mg BID, Week 16-56): 0
Subjects with AE leading to discontinuation: Vertigo (25 mg BID, Week 16-56): 0
Subjects with AE leading to discontinuation: Vomiting (25 mg BID, Week 16-56): 0
Subjects with COVID-19 associated AE of interest: SARS-CoV-2 test positive (25 mg BID, Week 16-56): 0
Subjects with treatment-emergent AE: Alanine aminotransferase increased (25 mg BID, Week 16-56): 0
Subjects with treatment-emergent AE: Arthralgia (25 mg BID, Week 16-56): 0
Subjects with treatment-emergent AE: Aspartate aminotransferase increased (25 mg BID, Week 16-56): 0
Subjects with treatment-emergent AE: Vomiting (25 mg BID, Week 16-56): 0
Subjects with treatment-emergent serious AE: Cerebrovascular accident (25 mg BID, Week 16-56): 0
Subjects with treatment-emergent serious AE: Coronary artery disease (25 mg BID, Week 16-56): 0
Subjects with treatment-emergent serious AE: Diverticulitis (25 mg BID, Week 16-56): 0
Subjects with treatment-emergent serious AE: Foot deformity (25 mg BID, Week 16-56): 0
Subjects with treatment-emergent serious AE: General disorders and administration site conditions (25 mg BID, Week 16-56): 0
Subjects with treatment-emergent serious AE: Infections and infestations (25 mg BID, Week 16-56): 0
Subjects with treatment-emergent serious AE: Intervertebral disc protrusion (25 mg BID, Week 16-56): 0
Subjects with treatment-emergent serious AE: Musculoskeletal and connective tissue disorders (25 mg BID, Week 16-56): 0
Subjects with treatment-emergent serious AE: Neoplasms benign, malignant and unspecified (incl cysts and polyps) (25 mg BID, Week 16-56): 0
Subjects with treatment-emergent serious AE: Nervous system disorders (25 mg BID, Week 16-56): 0
Subjects with treatment-emergent serious AE: Non-cardiac chest pain (25 mg BID, Week 16-56): 0
Subjects with treatment-emergent serious AE: Uterine leiomyoma (25 mg BID, Week 16-56): 0
Acrochordon: % of subjects (25 mg BID, through Week 56): (2.4%)
Acrochordon: number of subjects (25 mg BID, through Week 56): 1
Actinic keratosis: number of subjects (25 mg BID, through Week 56): 0
Alopecia: number of subjects (25 mg BID, through Week 56): 0
Asthenia: % of subjects (25 mg BID, through Week 56): (2.4%)
Asthenia: number of subjects (25 mg BID, through Week 56): 1
Asthma: number of subjects (25 mg BID, through Week 56): 0
Atrioventricular block first degree: number of subjects (25 mg BID, through Week 56): 0
Basal cell carcinoma: number of subjects (25 mg BID, through Week 56): 0
Blood and lymphatic system disorders: number of subjects (25 mg BID, through Week 56): 0
Bronchitis chronic: number of subjects (25 mg BID, through Week 56): 0
Bundle branch block right: number of subjects (25 mg BID, through Week 56): 0
Cardiac disorders: % of subjects (25 mg BID, through Week 56): (2.4%)
Cardiac disorders: number of subjects (25 mg BID, through Week 56): 1
Chills: % of subjects (25 mg BID, through Week 56): (2.4%)
Chills: number of subjects (25 mg BID, through Week 56): 1
Cholelithiasis: number of subjects (25 mg BID, through Week 56): 0
Chronic obstructive pulmonary disease: number of subjects (25 mg BID, through Week 56): 0
Coronary artery disease: number of subjects (25 mg BID, through Week 56): 0
Cough: number of subjects (25 mg BID, through Week 56): 0
Decreased appetite: number of subjects (25 mg BID, through Week 56): 0
Depression: number of subjects (25 mg BID, through Week 56): 0
Dermal cyst: number of subjects (25 mg BID, through Week 56): 0
Dermatitis acneiform: number of subjects (25 mg BID, through Week 56): 0
Dermatitis contact: % of subjects (25 mg BID, through Week 56): (2.4%)
Dermatitis contact: number of subjects (25 mg BID, through Week 56): 1
Diabetes mellitus: % of subjects (25 mg BID, through Week 56): (2.4%)
Diabetes mellitus: number of subjects (25 mg BID, through Week 56): 1
Diffuse alopecia: number of subjects (25 mg BID, through Week 56): 0
Dysuria: number of subjects (25 mg BID, through Week 56): 0
Ear and labyrinth disorders: number of subjects (25 mg BID, through Week 56): 0
Endocrine disorders: % of subjects (25 mg BID, through Week 56): (2.4%)
Endocrine disorders: number of subjects (25 mg BID, through Week 56): 1
Eye disorders: % of subjects (25 mg BID, through Week 56): (2.4%)
Eye disorders: number of subjects (25 mg BID, through Week 56): 1
Eyelid skin dryness: % of subjects (25 mg BID, through Week 56): (2.4%)
Eyelid skin dryness: number of subjects (25 mg BID, through Week 56): 1
Fatigue: number of subjects (25 mg BID, through Week 56): 0
General disorders and administration site conditions: % of subjects (25 mg BID, through Week 56): (4.9%)
General disorders and administration site conditions: number of subjects (25 mg BID, through Week 56): 2
Goiter: % of subjects (25 mg BID, through Week 56): (2.4%)
Goiter: number of subjects (25 mg BID, through Week 56): 1
Haemochromatosis: number of subjects (25 mg BID, through Week 56): 0
Hand dermatitis: number of subjects (25 mg BID, through Week 56): 0
Hematuria: number of subjects (25 mg BID, through Week 56): 0
Hepatobiliary disorders: number of subjects (25 mg BID, through Week 56): 0
Hypercholesterolemia: number of subjects (25 mg BID, through Week 56): 0
Hyperglycemia: number of subjects (25 mg BID, through Week 56): 0
Hyperlipidemia: % of subjects (25 mg BID, through Week 56): (2.4%)
Hyperlipidemia: number of subjects (25 mg BID, through Week 56): 1
Hypertension: % of subjects (25 mg BID, through Week 56): (4.9%)
Hypertension: number of subjects (25 mg BID, through Week 56): 2
Hypertransaminasemia: number of subjects (25 mg BID, through Week 56): 0
Hypertriglyceridemia: number of subjects (25 mg BID, through Week 56): 0
Hypoacusis: number of subjects (25 mg BID, through Week 56): 0
Immune system disorders: number of subjects (25 mg BID, through Week 56): 0
Influenza like illness: % of subjects (25 mg BID, through Week 56): (2.4%)
Influenza like illness: number of subjects (25 mg BID, through Week 56): 1
Insomnia: % of subjects (25 mg BID, through Week 56): (2.4%)
Insomnia: number of subjects (25 mg BID, through Week 56): 1
Intertrigo: number of subjects (25 mg BID, through Week 56): 0
